From ChEMBL document CHEMBL4265889, “Design and synthesis of tetrahydropyridopyrimidine based Toll-Like Receptor (TLR) 7/8 dual agonists” (Bioorg Med Chem Lett, 2018)
pIC50: −log10 of the molar value.

Tests used:
[1] = biological target: T1, Toll-like receptor 7 (Homo sapiens) (UniProt Q9NYK1); assay: Agonist activity at human TLR7 expressed in HEK293 cells after 6 hrs by NFkappaB-luciferase reporter gene assay; format: cell-based
T1 sequence (whole entry): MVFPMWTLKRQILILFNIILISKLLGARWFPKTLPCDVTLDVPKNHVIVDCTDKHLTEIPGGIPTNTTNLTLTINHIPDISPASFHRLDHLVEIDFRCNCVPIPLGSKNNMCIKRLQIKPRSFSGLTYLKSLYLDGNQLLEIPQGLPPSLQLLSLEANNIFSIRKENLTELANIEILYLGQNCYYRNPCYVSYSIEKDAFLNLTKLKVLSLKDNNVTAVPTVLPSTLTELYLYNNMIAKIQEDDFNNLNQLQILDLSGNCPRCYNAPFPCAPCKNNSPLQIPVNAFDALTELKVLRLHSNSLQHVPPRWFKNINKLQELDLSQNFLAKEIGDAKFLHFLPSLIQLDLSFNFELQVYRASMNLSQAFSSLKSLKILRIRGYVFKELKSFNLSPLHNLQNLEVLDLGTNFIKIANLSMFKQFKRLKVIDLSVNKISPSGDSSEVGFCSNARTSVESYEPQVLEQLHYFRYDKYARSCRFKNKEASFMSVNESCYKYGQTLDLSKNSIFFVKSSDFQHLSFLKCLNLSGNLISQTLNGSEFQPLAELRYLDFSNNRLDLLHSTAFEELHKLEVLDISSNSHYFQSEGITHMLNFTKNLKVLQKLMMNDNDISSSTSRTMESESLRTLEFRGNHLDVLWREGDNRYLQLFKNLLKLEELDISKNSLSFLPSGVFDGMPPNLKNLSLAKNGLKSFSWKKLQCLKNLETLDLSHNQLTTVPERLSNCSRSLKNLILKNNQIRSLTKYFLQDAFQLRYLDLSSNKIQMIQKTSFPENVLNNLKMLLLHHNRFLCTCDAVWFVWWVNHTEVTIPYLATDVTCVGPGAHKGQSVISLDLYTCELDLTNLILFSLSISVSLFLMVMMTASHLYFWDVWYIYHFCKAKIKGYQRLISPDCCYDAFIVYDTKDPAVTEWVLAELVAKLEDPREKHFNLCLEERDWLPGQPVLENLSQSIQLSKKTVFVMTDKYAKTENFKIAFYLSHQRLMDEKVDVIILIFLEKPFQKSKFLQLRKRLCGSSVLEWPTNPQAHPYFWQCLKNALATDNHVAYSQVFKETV

[2] = biological target: T2, Toll-like receptor 8 (Homo sapiens) (UniProt Q9NR97); assay: Agonist activity at human TLR8 expressed in HEK293 cells after 6 hrs by NFkappaB-luciferase reporter gene assay; format: cell-based
T2 sequence (whole entry): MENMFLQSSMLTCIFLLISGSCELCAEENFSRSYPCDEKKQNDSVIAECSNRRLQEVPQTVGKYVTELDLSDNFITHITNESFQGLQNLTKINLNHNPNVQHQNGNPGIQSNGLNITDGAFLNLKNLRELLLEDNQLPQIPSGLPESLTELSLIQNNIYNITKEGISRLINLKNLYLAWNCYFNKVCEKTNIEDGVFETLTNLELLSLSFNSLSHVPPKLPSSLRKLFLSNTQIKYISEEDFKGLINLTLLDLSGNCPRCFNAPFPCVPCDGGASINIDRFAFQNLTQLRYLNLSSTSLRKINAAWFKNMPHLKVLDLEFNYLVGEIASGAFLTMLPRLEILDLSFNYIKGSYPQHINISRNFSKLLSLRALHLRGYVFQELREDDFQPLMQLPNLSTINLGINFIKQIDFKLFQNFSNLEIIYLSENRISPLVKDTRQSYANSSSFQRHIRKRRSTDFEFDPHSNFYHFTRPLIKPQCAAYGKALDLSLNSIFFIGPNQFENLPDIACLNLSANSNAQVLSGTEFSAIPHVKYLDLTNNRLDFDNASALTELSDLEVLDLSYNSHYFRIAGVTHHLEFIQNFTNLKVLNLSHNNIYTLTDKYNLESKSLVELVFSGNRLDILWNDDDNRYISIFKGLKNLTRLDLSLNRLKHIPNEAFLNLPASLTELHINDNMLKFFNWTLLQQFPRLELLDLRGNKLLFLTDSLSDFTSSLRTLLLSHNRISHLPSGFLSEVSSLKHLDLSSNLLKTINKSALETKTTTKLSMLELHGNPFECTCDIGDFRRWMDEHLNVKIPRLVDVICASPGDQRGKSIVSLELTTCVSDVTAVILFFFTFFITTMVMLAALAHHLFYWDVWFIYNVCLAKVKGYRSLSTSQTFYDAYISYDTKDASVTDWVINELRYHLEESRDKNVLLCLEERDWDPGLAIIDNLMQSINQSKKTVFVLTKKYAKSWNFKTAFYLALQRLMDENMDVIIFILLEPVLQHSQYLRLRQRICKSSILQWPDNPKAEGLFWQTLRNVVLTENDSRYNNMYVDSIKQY

[3] = Cytotoxicity against HEK293 cells transfected with the CMV-TLR7 construct assessed as reduction in cell viability after 6 hrs by ATPlite assay; format: cell-based; conditions: human
[4] = biological target: T1, Toll-like receptor 7 (Homo sapiens); assay: Agonist activity at TLR7 in human PBMC assessed as suppression of HCV replicon replication in human HuH7 luc/neo cells harboring RNA encoding bicistronic expression construct comprising wild type HCV type 1b NS3-NS5B regions exposed to conditioned media from compound treated PBMCs after 24 hrs by luciferase reporter gene assay; format: cell-based
[5] = biological target: Voltage-gated inwardly rectifying potassium channel KCNH2 (Homo sapiens, UniProt Q12809); assay: Displacement of 3H-dofetilide from human ERG
[6] = Drug metabolism in mouse liver microsomes at 1 uM after 15 mins; format: ADME, microsome; conditions: read-out: Drug metabolism
[7] = Drug metabolism in human liver microsomes at 1 uM after 15 mins; format: ADME, microsome; conditions: read-out: Drug metabolism
[8] = species: Homo sapiens; assay: Selectivity index, ratio of MEC for human TLR8 to MEC for human TLR7

Chain of Voltage-gated inwardly rectifying potassium channel KCNH2 (Q12809 whole entry): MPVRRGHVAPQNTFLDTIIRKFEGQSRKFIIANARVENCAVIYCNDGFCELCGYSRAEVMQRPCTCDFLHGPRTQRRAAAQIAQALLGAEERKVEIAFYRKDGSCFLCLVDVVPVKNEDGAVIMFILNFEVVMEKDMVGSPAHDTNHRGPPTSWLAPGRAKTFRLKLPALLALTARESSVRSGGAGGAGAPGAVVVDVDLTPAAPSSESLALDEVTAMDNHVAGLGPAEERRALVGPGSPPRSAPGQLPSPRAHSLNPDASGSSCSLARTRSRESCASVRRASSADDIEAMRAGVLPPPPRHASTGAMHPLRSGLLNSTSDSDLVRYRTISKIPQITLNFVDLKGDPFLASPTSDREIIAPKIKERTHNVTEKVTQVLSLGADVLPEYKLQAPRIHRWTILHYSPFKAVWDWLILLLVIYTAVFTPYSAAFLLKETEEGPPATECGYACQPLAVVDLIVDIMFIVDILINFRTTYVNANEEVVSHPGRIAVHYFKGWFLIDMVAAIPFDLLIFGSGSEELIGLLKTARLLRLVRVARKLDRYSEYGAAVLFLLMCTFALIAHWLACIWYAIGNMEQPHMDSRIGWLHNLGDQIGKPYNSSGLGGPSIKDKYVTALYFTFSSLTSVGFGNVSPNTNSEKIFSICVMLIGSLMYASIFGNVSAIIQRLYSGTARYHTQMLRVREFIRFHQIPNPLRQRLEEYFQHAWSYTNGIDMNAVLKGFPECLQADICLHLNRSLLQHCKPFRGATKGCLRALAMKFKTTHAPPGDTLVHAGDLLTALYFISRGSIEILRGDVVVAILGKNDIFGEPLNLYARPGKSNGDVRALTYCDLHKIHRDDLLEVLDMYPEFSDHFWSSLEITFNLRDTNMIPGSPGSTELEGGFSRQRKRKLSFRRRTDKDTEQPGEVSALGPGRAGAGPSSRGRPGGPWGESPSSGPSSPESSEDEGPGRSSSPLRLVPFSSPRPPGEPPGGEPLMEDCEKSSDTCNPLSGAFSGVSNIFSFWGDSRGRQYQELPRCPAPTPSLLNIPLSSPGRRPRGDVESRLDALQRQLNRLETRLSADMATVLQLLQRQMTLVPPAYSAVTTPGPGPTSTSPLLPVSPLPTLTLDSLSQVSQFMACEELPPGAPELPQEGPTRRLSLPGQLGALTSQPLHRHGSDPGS

SMILES	MEC [1] [µM]	MEC [2] [µM]	CC50 at 6 h [3] [µM]	MEC [4] [µM]	pIC50 [5]	metabolised at 0.25 h, 1 µM [6] [%]	metabolised at 0.25 h, 1 µM [7] [%]	Selectivity Index [8]
CCC[C@@H](CCO)Nc1nc(N)nc2c1CN(C(=O)c1cccs1)CC2	0.2	1.1	> 24	0.2	5.12	73	22	
CCCCNc1nc(N)nc2c1CN(C(=O)c1csc(C)n1)CC2	2	1.8	> 24	0.53	5.89	88		
CCCC[C@@H](CCO)Nc1nc(N)nc2c1CN(C(=O)c1csc(C)n1)CC2	1	6.6	> 24	0.2	< 4.30	71	30	
CCCC[C@@H](CCO)Nc1nc(N)nc2c1CN(C(=O)c1cccs1)CC2	0.2	1.7	> 24	0.2	5.16	90	37	
CCCCNc1nc(N)nc2c1CCN(C(=O)c1ccccc1)C2	3.9	0.8	> 24					5
